Reference: publication PMC6130489, “Caffeic acid methyl and ethyl esters exert potential antidiabetic effects on glucose and lipid metabolism in cultured murine insulin-sensitive cells through mechanisms implicating activation of AMPK” (Pharmaceutical Biology, 2017)

Experiments:
AMPK = test: Western immunoblot phospho-AMPK in L6 myotubes; format: cell-based, rat; settings: AICAR 30 min (2 mM per Figure 1 legend, 1 mM per methods)
Protocol: L6 cells myotubes, H4IIE cells and 3T3-L1 adipocytes were treated with either CAME, CAEE (50 μM each) or vehicle (DMSO) for 18 h. Insulin (100 nM) or aminoimidazole carboxamide ribonucleotide (AICAR; 1 mM) were added to some vehicle-treated wells 30 min prior to the end of the treatment and served as the positives controls. Protein content was assayed by the bicinchoninic acid method (Thermo Scientific Pierce Protein Research, Rockford, IL) standardized to bovine serum albumin. Western immunoblotting was performed as described elsewhere (Eid et al. [2010]). Membranes were incubated overnight with phospho-AMPK, phospho-Akt, GLUT4, GLUT1 and β-actin antibodies (1:1000 dilution, Cell Signalling Technology, Danvers, MA), or with PPAR-γ, SREBP-1 (1:200, Santa Cruze Biotechnology, Santa Cruz, CA), followed by incubation with HRP-coupled secondary antibody (1:10,000) for 1 h. Immunoreactive bands were visualized by enhanced chemiluminescence and quantified by the Scion Image program (Scion Corporation, Frederick, MD). Experiments were repeated on 3 different passages of cells, each passage containing all conditions in parallel.
Figure 1. (A) CAME and CAEE increase ^3H-deoxyglucose uptake in L6 GLUT4myc myotubes. Cells were treated with 50 μM of either CAME, CAEE, or with vehicle (0.1% DMSO) for 18 h. 100 nM insulin served as the positive control and was applied for the last 15 min of the treatment in vehicle-treated cells. Glucose uptake was performed as described in Materials and Methods section. […] Cells were treated as previously described, cell surface GLUT4myc was detected by an enzyme-linked colorimetric assay. […] Results represent the means ± SEM of three independent experiments, and 3-4 cells were analyzed for each condition per experiment. *Indicates a significant (p ≤ 0.05) difference, **(p < 0.01) from the vehicle control group as assessed by ANOVA. […] Data are expressed as (D) phospho-AMPK/β-actin, (E) GLUT4/β-actin and (F) GLUT1/β-actin and are given as mean ± SEM from 3 experiments. *p < 0.05 indicates a significant difference, **(p < 0.01) from the vehicle control group.

L6 GLUT4myc myotubes = test: 3H-Deoxyglucose uptake assay; format: cell-based, rat; settings: insulin 100 nM, 15 min
Protocol: Measurement of glucose uptake was performed as previously described (Eid et al. [2010]) using [^3H]-2-deoxyglucose (TRK-383, Amersham Biosciences, Buckinghamshire, UK). Nonspecific uptake was measured in the presence of cytochalasin B (10 μM) and was subtracted from all values.
(§1) Figure 1. (A) CAME and CAEE increase ^3H-deoxyglucose uptake in L6 GLUT4myc myotubes. Cells were treated with 50 μM of either CAME, CAEE, or with vehicle (0.1% DMSO) for 18 h. 100 nM insulin served as the positive control and was applied for the last 15 min of the treatment in vehicle-treated cells. Glucose uptake was performed as described in Materials and Methods section. (B) CAME and CAEE stimulate GLUT4 translocation in L6 GLUT4myc myotubes. Cells were treated as previously described, cell surface GLUT4myc was detected by an enzyme-linked colorimetric assay. By the end of the treatment, L6- GLUT4myc cells were labeled with anti-c-myc antibody as described in Materials and Methods section. Results represent the means ± SEM of three independent experiments, and 3-4 cells were analyzed for each condition per experiment. *Indicates a significant (p ≤ 0.05) difference, **(p < 0.01) from the vehicle control group as assessed by ANOVA. […] L6 myotubes treated with CAME or CAEE (50 μM each), DMSO (0.1%) for 18 h. Insulin (100 nM) and AICAR (2 mM) both applied for 30 min and served as positive controls. Immunoblots were probed with anti phospho-AMPK (Thr 172), anti-GLUT4, anti-GLUT1 and anti-phospho-Akt (Ser 473) antibodies as described in Materials and Methods section. Anti-β-actin antibody was used as a loading control. Representative blots are shown in panel C. Data are expressed as (D) phospho-AMPK/β-actin, (E) GLUT4/β-actin and (F) GLUT1/β-actin and are given as mean ± SEM from 3 experiments. *p < 0.05 indicates a significant difference, **(p < 0.01) from the vehicle control group.

GLUT4myc = test: Cell surface GLUT4myc (GLUT4 translocation), OPD assay; format: cell-based, rat; settings: insulin 100 nM, 15 min; L6-GLUT4myc
Protocol: L6-GLUT4myc myotubes grown in 24-well plates were serum-starved for 4 h and were incubated with either CAME or CAEE (50 μM) for 18 h or insulin (100 nM) for 15 min. Cell-surface GLUT4myc levels were measured by an antibody-coupled colorimetric assay (Niu et al. [2003]) using O-phenylenediamine dihydrochloride (OPD) reagent (1 mL/well) (Sigma-Aldrich, St. Louis, MO), an anti-c-myc antibody (1:200 dilution; Santa Cruz Biotechnology, Santa Cruz, CA) and horseradish peroxidase (HRP)-conjugated goat anti-rabbit IgG at 4 °C (1:1000 dilution; Cell Signaling Technologies, Danvers, MA).
as §1, with “Anti-β-actin antibody was used as a loading control. Representative blots are shown in panel C.” left out

G6Pase = target: T1, G6Pase (Rattus norvegicus, UniProt P43428); test: Enzymatic activity of G6Pase in H4IIE cells; format: cell-based; settings: insulin 100 nM, same treatment period, relative to DMSO
T1 sequence (P43428 1-357): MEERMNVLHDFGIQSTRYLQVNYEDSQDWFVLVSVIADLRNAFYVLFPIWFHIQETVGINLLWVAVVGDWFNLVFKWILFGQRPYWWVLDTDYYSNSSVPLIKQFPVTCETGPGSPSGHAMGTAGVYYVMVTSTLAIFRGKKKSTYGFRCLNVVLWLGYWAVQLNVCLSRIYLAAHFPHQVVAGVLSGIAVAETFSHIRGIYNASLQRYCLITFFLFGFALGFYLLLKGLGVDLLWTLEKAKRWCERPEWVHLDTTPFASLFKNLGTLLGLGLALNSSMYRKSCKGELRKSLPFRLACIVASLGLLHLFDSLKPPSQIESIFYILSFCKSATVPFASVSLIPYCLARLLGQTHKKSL
Protocol: At 90% confluence, H4-IIE cells were treated with 12.5, 25, 50 and 100 μM of either CAME or CAEE in serum free medium. Vehicle (0.1% DMSO)-treated and 100 nM insulin-treated cells served as the negative and positive control respectively. The activity of G6Pase was assessed by measuring the rate of glucose production in the presence of a non-limiting amount of glucose-6-phosphate (G6P) as described elsewhere (Nachar et al. [2013]). Total glucose production was measured using a commercial glucose assay kit (AutoKit Glucose; Wako Diagnostics, Richmond, VA). Protein content was measured using bicinchoninic acid (BCA) assay (Simpson [2008]) and G6Pase activity was expressed in relation to protein content.
Figure 2. CAME and CAEE inhibit G6Pase by mechanisms involving activation of AMPK. (A) H4IIE hepatocytes were treated for 16 h with several concentrations (12.5, 25, 50 and100 μM) of either CAME or CAEE and G6Pase activity was determined colorimetrically using a commercial glucose assay kit as described under Materials and Methods. Data are expressed relative to vehicle control (0.1% DMSO, 0% inhibition). Insulin (100 nM) applied for similar treatment period served as the positive control. (B and C) Cells were treated with the optimal nontoxic concentration of either CAME, CAEE (50 μM each), or DMSO (0.1%) for 18 h, insulin (100 nM), AICAR (1 mM) applied for 30 min served as the positive controls. (B) The upper blot was probed with anti-phospho-AMPK antibody (Thr 172) and the lower blot was probed with anti-pan AMPK. (C) Blots were probed with antibodies against phospho-Akt (Ser 473) or pan-Akt. Immunoblots are representative of three independent experiments with similar results. (D) Data are expressed as phospho-AMPK/pan-AMPK and are given as mean ± SEM from 3 experiments. *p < 0.05 indicates a significant difference, **(p < 0.01), ***(p < 0.001) from the vehicle control group.

Compound	AMPK phosphorylation, fold increase over DMSO (AMPK) [fold]	glucose uptake, percent of DMSO control (L6 GLUT4myc myotubes) [%]	2-deoxyglucose uptake rate (L6 GLUT4myc myotubes; basal (DMSO) 10.1 ± 0.5) [pmol/min/mg protein]	GLUT4 translocation, fold relative to DMSO (GLUT4myc) [fold]	inhibition of G6Pase activity (G6Pase) [%]
NC(=O)c1ncn([C@@H]2O[C@H](CO)[C@@H](O)[C@H]2O)c1N [AICAR, aminoimidazole carboxamide ribonucleotide, reference compound]	8.5	–	–	–	–
insulin: Insulin from bovine pancreas, positive control (100 nM)	–	175 ± 13	17.7 ± 1.2	1.73 ± 0.18	70.7 ± 2.3
